Results reported in patent US7005425B2, “Method for treating arrhythmias” (CV Therapeutics, Inc., priority 2002, dated 2006).

System: awake rats
Experiment: Telemetry studies of heart rate in awake rats
Format: in vivo, Rats (Sprague Dawley)
Conditions: CVT-510 20 μg/kg ip alone
Experimental: Rats (Sprague Dawley) weighing 300–400 gms were purchased from Simonsen laboratories. CVT-3619 was dissolved in DMSO and further diluted in saline. CVT-510 was dissolved in saline. Ketamine was purchased from Fort Dodge Animal Health, Xylazine from Bayer and Acepromazine Maleate from Fermenta Animal Health Co. Metoprolol and propranolol were purchased from SIGMA. Esmolol was obtained from a local pharmacy.
For these studies, rats were instrumented with radiotelemetered transmitters (Data Sciences) at least 3 weeks prior to experimentation. Animals were anesthetized by peritoneal injection of a “cocktail” (1 ml/kg) containing Ketamine (75 mg/ml), Xylazine (5 mg/ml), and Acepromazine (1 mg/ml). After 20–30 minutes of induction of anesthesia, a midline laparotomy was performed. The transmitter for recordings of ECG, blood pressure and body temperature was placed in the abdominal cavity, and secured to the abdominal muscles. Two electrocardiographic leads were tunneled through the subcutaneous—one toward the upper left shoulder and the other to the right thigh, and secured with sutures. A fluid filled sensor catheter was inserted in the descending aorta above the iliac bifurcation for measurement of blood pressure. The tip of the telemetry catheter was located in the abdominal aorta just caudal to the renal arteries. Once the transmitter and leads were in place and determined to be functioning properly, the abdominal wall was sutured. After recovery from anesthesia, the rats were housed individually in cages placed on their respective receivers. The ECG, blood pressure and temperature were recorded and heart rate measured by a Dataquest ART Gold system (Version 2.2; Data Sciences Intl). The system consisted of a transmitter, i.e., biopotential sensor (Model TL11M2-C50-PXT), receivers (Model RPC-1), a consolidation matrix (BCM 100), a personal computer (Compaq DeskPro Series 3574) and Dataquest 4 software. Heart rate, blood pressure and temperature were measured at 5-minute intervals. Each recording lasted 10 seconds and all cardiac cycles within this period were averaged. Animals were given various drugs in a randomized manner after recording the baseline data for at least two hours.
A subgroup of animals was implanted with osmotic pumps containing CVT-510 for combination experiments. […]
The slowing of heart rate caused by each treatment was quantified by determining the area under the curve (AUC), using the trapezoidal method for calculations. Data used for analysis was the area under/over the curve calculated using change form baseline data (untreated animals). The data was analyzed for the magnitude as well as the duration of bradycardia caused by each treatment. […]

OC[C@H]1O[C@@H](n2cnc3c(N[C@@H]4CCOC4)ncnc32)[C@H](O)[C@@H]1O [CVT-510, 6-(3-(R)-aminotetrahydrofuranyl)purine riboside]
effect on heart rate (FIG. 3): transiently lowers the heart rate below baseline levels
effect on heart rate (FIG. 4): slowed the heart rate in a dose dependent manner
